According to PubChem BioAssay (NCI):
“And” between values parts separate entries of the source, which are not always exact repeats. Equal entries are not always repeated.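 Test compounds were applied to cells in 96-well plates for 48 hours at 5 doses. GI50 is the concentration that inhibits growth by half. TGI: concentration producing complete growth inhibition.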

Tests used:
Test in all cases: growth of human tumour cells (NCI), 48 h
HS 578T breast = test system: HS 578T breast
NCI/ADR-RES ovarian = test system: NCI/ADR-RES ovarian
HOP-62 NSCLC = test system: HOP-62 NSCLC
EKVX NSCLC = test system: EKVX NSCLC
OVCAR-8 ovarian = test system: OVCAR-8 ovarian
CAKI-1 renal = test system: CAKI-1 renal
SF-539 CNS = test system: SF-539 CNS
UO-31 renal = test system: UO-31 renal

| SMILES | GI50 (HS 578T breast) | TGI (HS 578T breast) | GI50 (NCI/ADR-RES ovarian) | TGI (NCI/ADR-RES ovarian) | GI50 (HOP-62 NSCLC) | TGI (HOP-62 NSCLC) | GI50 (EKVX NSCLC) | TGI (EKVX NSCLC) | GI50 (OVCAR-8 ovarian) | TGI (OVCAR-8 ovarian) | GI50 (CAKI-1 renal) | TGI (CAKI-1 renal) | GI50 (SF-539 CNS) | TGI (SF-539 CNS) | GI50 (UO-31 renal) | TGI (UO-31 renal) |
| --- | --- | --- | --- | --- | --- | --- | --- | --- | --- | --- | --- | --- | --- | --- | --- | --- |
| Cc1nc2c(N3CCCC3)nc(N3CCNCC3)nc2nc1NCc1ccccc1 | 7.4 µM | 17 µM and 18.7 µM | 6.84 µM | 13.6 µM and 29 µM | 5.76 µM | 11.8 µM and 8.26 µM | 5.46 µM | 10.6 µM and 20.8 µM | 5.73 µM | 11 µM and 14.5 µM | 4.82 µM | 10.6 µM and 14 µM | 6.21 µM | 13.4 µM and 7 µM | 1.48 µM | 6.06 µM and 6.39 µM |
| O=C(COc1cccc(/C=C2\Oc3ccc4ccccc4c3C2=O)c1)c1ccc(Cl)cc1 | 50 µM | > 100 µM | > 100 µM | > 100 µM | 7.09 µM | 32.4 µM | > 100 µM | > 100 µM | 15.4 µM | 41.9 µM | > 100 µM | > 100 µM | > 100 µM | > 100 µM | 50.2 µM | > 100 µM |
| CCOC(=O)C(C(=O)OCC)C(=O)c1ccccc1C(=O)c1ccccc1 | – | > 100 µM | – | > 100 µM | – | > 100 µM | – | 96.7 µM | – | – | – | > 100 µM | – | > 100 µM | – | > 100 µM |
| CC(C)C[C@H](NC(=O)CCn1ccc2ncccc2c1=O)B(O)O | 13.2 µM | > 71.7 µM | > 100 µM | > 100 µM | 21.7 µM | > 79 µM | – | – | 27.4 µM | > 100 µM | 21.6 µM | > 100 µM | 2.96 µM | 9.03 µM | 19.6 µM | > 100 µM |
| O=S(=O)(NC1=NCCN1C(=S)SN1CCn2c1nsc2=S)c1ccccc1Cl | 29.6 µM | > 100 µM | 27.7 µM | > 100 µM | 17.4 µM | 33.9 µM | 36.6 µM | > 100 µM | 28.6 µM | > 100 µM | 12.3 µM | 41.6 µM | 12.9 µM | 31.5 µM | 26.1 µM | > 100 µM |
| COc1c(Cl)ccc2c(-c3nc4cc(Cl)c(F)cc4s3)cc(=O)oc12 | 26.8 µM | > 100 µM | 8.76 µM | > 100 µM | 6.26 µM | 20.7 µM | – | – | 11.2 µM | > 100 µM | 1.98 µM | – | 1.77 µM | 3.36 µM | 1.44 µM | 3.15 µM |
| Cc1ncc(C(=O)Nc2ccc(CN3CCN(C)CC3)c(C(F)(F)F)c2)cc1C#Cc1c(N)ncc2ccccc12 | 0.356 µM | 1.26 µM | 0.67 µM | 1.54 µM | 0.524 µM | 1.4 µM | 0.458 µM | 0.906 µM | 0.566 µM | 1.28 µM | 0.648 µM | 2.35 µM | 0.47 µM | 0.914 µM | 0.46 µM | 1.27 µM |
| COc1cc(F)c(/C=C/c2cc(/C=C/c3cc(OC)c(OC)cc3F)n(-c3cc(F)cc(F)c3)n2)cc1OC | 4.04 µM | 18.9 µM | 2.23 µM | 5.65 µM | 4.01 µM | 17.1 µM | 4.94 µM | 55.9 µM | – | – | 12.8 µM | 34.4 µM | 2.7 µM | 9.17 µM | 14.1 µM | 34.4 µM |
| OCC(CCc1c[nH]c2ccccc12)c1c[nH]c2ccccc12 (centres undefined) | – | 48.6 µM | – | 44.1 µM | – | 50.6 µM | – | 30.3 µM | – | 46.6 µM | – | 77.4 µM | – | 33.6 µM | – | 25.9 µM |
| CCOc1nccc2c1nc(-c1nonc1N)n2CC | > 25 µM | > 25 µM | > 25 µM | > 25 µM | > 25 µM | > 25 µM | > 25 µM | > 25 µM | > 25 µM | > 25 µM | > 25 µM | > 25 µM | > 25 µM | > 25 µM | > 18.4 µM | > 25 µM |
| COc1cccc(N=N/C(=N\NC(=O)c2cc(Br)ccc2O)c2ccc(N(CCC#N)CCC#N)cc2OC)c1 | 48.9 µg/mL | > 150 µg/mL | 120 µg/mL | > 150 µg/mL | – | – | 99.9 µg/mL | > 150 µg/mL | 41.6 µg/mL | > 150 µg/mL | 88.6 µg/mL | > 150 µg/mL | 42.7 µg/mL | > 150 µg/mL | 68 µg/mL | > 150 µg/mL |
| CC(C)C[C@H](NC(=O)[C@@H](NC(=O)c1cccc(-c2ccccc2)n1)[C@@H](C)O)B(O)O | 0.00404 µM and < 0.0107 µM | > 100 µM | 0.345 µM and 0.249 µM | 6.19 µM | 0.0106 µM and < 0.0106 µM | 0.0358 µM and 0.0391 µM | – | – | 0.0261 µM and 0.0238 µM | > 51.6 µM | 0.0146 µM and < 0.0174 µM | – | 0.00264 µM | 0.00684 µM and < 0.0114 µM | 0.0215 µM and 0.0183 µM | 0.0849 µM and 0.114 µM |
| N#Cc1nc2c(S(=O)(=O)c3ccccc3)c(N)n(Cc3ccc(Cl)cc3)c2nc1C#N | 7.08 µM | 23.4 µM | 0.424 µM | 10.3 µM | > 50 µM | > 50 µM | 19.1 µM | > 50 µM | 8.51 µM | 47.6 µM | 26.7 µM | > 50 µM | 19.4 µM | > 50 µM | – | – |
| Cc1cc(N(CCCNc2ccnc3cc(Cl)ccc23)Cc2ccc3c(c2)OCO3)nc(N2CCCCC2)n1 | 1.78 µM | 4.25 µM | 2.43 µM | 8.03 µM | 1.74 µM | 5.17 µM | 2.56 µM | 38 µM | 2.1 µM | 4.95 µM | – | – | 1.82 µM | 3.36 µM | 1.25 µM | 2.82 µM |
| CN1C[C@@H]2Cn3c(c(C4=C(c5cn(C)c6ccccc56)C(=O)NC4=O)c4ccccc43)C[C@H]2C1 | 2.71 µM and 2.63 µM | 8.34 µM and 9.51 µM | 6.46 µM and 8.53 µM | 16.8 µM and 25 µM | 4.29 µM and 4.01 µM | 9.32 µM and 8.42 µM | – | – | 4.74 µM and 4.35 µM | 11.4 µM and 11.1 µM | 3.43 µM and 4.29 µM | 8.28 µM and 9.96 µM | 3.97 µM and 3.57 µM | 7.83 µM and 7.12 µM | 2.01 µM and 2.98 µM | 5.38 µM and 6.66 µM |
| COc1ccc(-c2ccc(-c3ccc(C(=N)N)cn3)o2)cc1Cl | 2.08 µM | 6.18 µM | 2.56 µM | 8.09 µM | 3.68 µM | 14.4 µM | 2 µM | 4.26 µM | – | – | 6.57 µM | 19.8 µM | 1.68 µM | 3.14 µM | 1.43 µM | 2.76 µM |
